According to paper PMC10178848, “Modulating fast skeletal muscle contraction protects skeletal muscle in animal models of Duchenne muscular dystrophy” (The Journal of Clinical Investigation, 2023):
Where two headings read alike, the source gives them in different places.

Test system: GRMD plasma proteins
Format: in vivo, dog
[1] = Post-Treatment to GRMD baseline, Increased in GRMD

SMILES: O=c1ccc(-c2cnc(OCC(F)(F)F)nc2)nn1Cc1cncc(F)c1 [EDG-5506]
- Change from GRMD Baseline (fraction): Tyrosine-protein phosphatase non-receptor type 11 (PTPN11) [1]: -0.1671 fraction
- Change from GRMD Baseline (fraction): UMP-CMP kinase (CMPK1) [1]: 0.3595 fraction
- Change from GRMD Baseline (fraction): Ubiquitin carboxyl-terminal hydrolase 25 (USP25) [1]: 0.0097 fraction
- Change from GRMD Baseline (fraction): Ubiquitin carboxyl-terminal hydrolase isozyme L1 (UCHL1) [1]: 0.0043 fraction
- Change from GRMD Baseline (fraction): Ubiquitin-fold modifier 1 (UFM1) [1]: -0.1676 fraction
- Change from GRMD Baseline (fraction): Vascular cell adhesion protein 1 (VCAM1) [1]: -0.0398 fraction
- Change from GRMD Baseline (fraction): Vitamin K-dependent protein C (PROC) [1]: 0.0209 fraction
- Change from GRMD Baseline (fraction): Vitronectin (VTN) [1]: -0.1254 fraction
- Change from GRMD Baseline (fraction): cAMP-dependent protein kinase catalytic subunit alpha (PRKACA) [1]: -0.3909 fraction
- Change from GRMD Baseline (fraction): dCTP pyrophosphatase 1 (DCTPP1) [1]: -0.286 fraction
- Chitotriosidase-1 (CHIT1): Change from GRMD Baseline (fraction) [1]: 0.0322 fraction
- Chorionic somatomammotropin hormone (CSH1 CSH2): Change from GRMD Baseline (fraction) [1]: -0.0339 fraction
- Chromobox protein homolog 5 (CBX5): Change from GRMD Baseline (fraction) [1]: 0.2228 fraction
- Coagulation Factor X (F10): Change from GRMD Baseline (fraction) [1]: 0.1794 fraction
- Coagulation factor IX (F9): Change from GRMD Baseline (fraction) [1]: 0.0608 fraction
- Complement component 1 Q subcomponent-binding protein, mitochondrial (C1QBP): Change from GRMD Baseline (fraction) [1]: 0.0901 fraction
- Connective tissue growth factor (CTGF): Change from GRMD Baseline (fraction) [1]: -0.0093 fraction
- Cyclin-dependent kinase 1:G2/mitotic-specific cyclin-B1 complex (CDC2 CCNB1): Change from GRMD Baseline (fraction) [1]: 0.0208 fraction
- Cyclin-dependent kinase 5:Cyclin-dependent kinase 5 activator 1 complex (CDK5 CDK5R1): Change from GRMD Baseline (fraction) [1]: 0.0687 fraction
- Cytokine receptor-like factor 1:Cardiotrophin-like cytokine factor 1 Complex (CRLF1 CLCF1): Change from GRMD Baseline (fraction) [1]: 0.0138 fraction
- Dual 3',5'-cyclic-AMP and -GMP phosphodiesterase 11A (PDE11A): Change from GRMD Baseline (fraction) [1]: 0.0321 fraction
- Ectodysplasin-A, secreted form (EDA): Change from GRMD Baseline (fraction) [1]: 0.0092 fraction
- Endothelial cell-selective adhesion molecule (ESAM): Change from GRMD Baseline (fraction) [1]: -0.0069 fraction
- Endothelial monocyte-activating polypeptide 2 (AIMP1): Change from GRMD Baseline (fraction) [1]: -0.0021 fraction
- Extracellular superoxide dismutase [Cu-Zn] (SOD3): Change from GRMD Baseline (fraction) [1]: 0.0677 fraction
- Ficolin-2 (FCN2): Change from GRMD Baseline (fraction) [1]: 0.0082 fraction
- Fms-related tyrosine kinase 3 ligand (FLT3LG): Change from GRMD Baseline (fraction) [1]: 0.0399 fraction
- Galactoside 3(4)-L-fucosyltransferase (FUT3): Change from GRMD Baseline (fraction) [1]: 0.1128 fraction
- Galectin-10 (CLC): Change from GRMD Baseline (fraction) [1]: 0.0216 fraction
- Glial fibrillary acidic protein (GFAP): Change from GRMD Baseline (fraction) [1]: -0.0254 fraction
- Glycylpeptide N-tetradecanoyltransferase 1 (NMT1): Change from GRMD Baseline (fraction) [1]: 0.0839 fraction
- Group 10 secretory phospholipase A2 (PLA2G10): Change from GRMD Baseline (fraction) [1]: 0.0518 fraction
- Growth hormone receptor (GHR): Change from GRMD Baseline (fraction) [1]: 0.0479 fraction
- Growth-regulated alpha protein (CXCL1): Change from GRMD Baseline (fraction) [1]: -0.0445 fraction
- Growth/differentiation factor 15 (GDF15): Change from GRMD Baseline (fraction) [1]: -0.0019 fraction
- Hepatocyte growth factor (HGF): Change from GRMD Baseline (fraction) [1]: 0.0007 fraction
- Hepcidin (HAMP): Change from GRMD Baseline (fraction) [1]: -0.0103 fraction
- Immunoglobulin M (IGHM IGJ IGK@ IGL@): Change from GRMD Baseline (fraction) [1]: 0.0023 fraction
- Importin subunit alpha-1 (KPNA2): Change from GRMD Baseline (fraction) [1]: -0.1696 fraction
- Induced myeloid leukemia cell differentiation protein Mcl-1 (MCL1): Change from GRMD Baseline (fraction) [1]: -0.1236 fraction
- Inorganic pyrophosphatase (PPA1): Change from GRMD Baseline (fraction) [1]: -0.0163 fraction
- Insulin-like growth factor-binding protein 7 (IGFBP7): Change from GRMD Baseline (fraction) [1]: 0.064 fraction
- Integrin alpha-IIb: beta-3 complex (ITGA2B ITGB3): Change from GRMD Baseline (fraction) [1]: 0.0053 fraction
- Interleukin-4 (IL4): Change from GRMD Baseline (fraction) [1]: -0.0251 fraction
- Interleukin-6 receptor subunit beta (IL6ST): Change from GRMD Baseline (fraction) [1]: 0.06 fraction
- Interleukin-8 (CXCL8): Change from GRMD Baseline (fraction) [1]: -0.0291 fraction
- Interleukin-10 receptor subunit beta (IL10RB): Change from GRMD Baseline (fraction) [1]: -0.0324 fraction
- Interleukin-17 receptor C (IL17RC): Change from GRMD Baseline (fraction) [1]: -0.0159 fraction
- Interleukin-18 receptor accessory protein (IL18RAP): Change from GRMD Baseline (fraction) [1]: -0.0292 fraction
- Interleukin-27 (IL27 EBI3): Change from GRMD Baseline (fraction) [1]: -0.0149 fraction
- Interleukin-36 beta (IL36B): Change from GRMD Baseline (fraction) [1]: 0.0098 fraction
- Killer cell immunoglobulin-like receptor 3DS1 (KIR3DS1): Change from GRMD Baseline (fraction) [1]: 0.1583 fraction
- Killer cell lectin-like receptor subfamily F member 1 (KLRF1): Change from GRMD Baseline (fraction) [1]: 0.2014 fraction
- Lamin-B1 (LMNB1): Change from GRMD Baseline (fraction) [1]: -0.0238 fraction
- Laminin (LAMA1 LAMB1 LAMC1): Change from GRMD Baseline (fraction) [1]: 0.0548 fraction
- Low-density lipoprotein receptor-related protein 1B (LRP1B): Change from GRMD Baseline (fraction) [1]: -0.0345 fraction
- Macrophage-stimulating protein receptor (MST1R): Change from GRMD Baseline (fraction) [1]: 0.0197 fraction
- Matrilin-3 (MATN3): Change from GRMD Baseline (fraction) [1]: -0.0333 fraction
- Matrilysin (MMP7): Change from GRMD Baseline (fraction) [1]: -0.0041 fraction
- N-terminal pro-BNP (NPPB): Change from GRMD Baseline (fraction) [1]: -0.0202 fraction
- NKG2D ligand 3 (ULBP3): Change from GRMD Baseline (fraction) [1]: 0.0123 fraction
- Neural cell adhesion molecule L1-like protein (CHL1): Change from GRMD Baseline (fraction) [1]: -0.0412 fraction
- Neurexophilin-1 (NXPH1): Change from GRMD Baseline (fraction) [1]: 0.3842 fraction
- OX-2 membrane glycoprotein (CD200): Change from GRMD Baseline (fraction) [1]: 0.1164 fraction
- Persephin (PSPN): Change from GRMD Baseline (fraction) [1]: -0.0043 fraction
- Phosphatidylinositol 4,5-bisphosphate 3-kinase catalytic subunit gamma isoform (PIK3CG): Change from GRMD Baseline (fraction) [1]: 0.0292 fraction
- Pituitary adenylate cyclase-activating polypeptide 27 (ADCYAP1): Change from GRMD Baseline (fraction) [1]: 0.0483 fraction
- Platelet factor 4 (PF4): Change from GRMD Baseline (fraction) [1]: 0.0577 fraction
- Platelet glycoprotein VI (GP6): Change from GRMD Baseline (fraction) [1]: 0.0535 fraction
- Prolactin (PRL): Change from GRMD Baseline (fraction) [1]: -0.0256 fraction
- Prolactin receptor (PRLR): Change from GRMD Baseline (fraction) [1]: 0.085 fraction
- Proteasome subunit alpha type-6 (PSMA6): Change from GRMD Baseline (fraction) [1]: 0.0724 fraction
- Protein E7_HPV18 (Human-virus): Change from GRMD Baseline (fraction) [1]: 0.0128 fraction
- Proto-oncogene tyrosine-protein kinase receptor Ret (RET): Change from GRMD Baseline (fraction) [1]: 0.0043 fraction
- RNA-binding protein 39 (RBM39): Change from GRMD Baseline (fraction) [1]: -0.1347 fraction
- Ras GTPase-activating protein 1 (RASA1): Change from GRMD Baseline (fraction) [1]: -0.0705 fraction
- Ribosome maturation protein SBDS (SBDS): Change from GRMD Baseline (fraction) [1]: 0.0714 fraction
- SPARC-related modular calcium-binding protein 1 (SMOC1): Change from GRMD Baseline (fraction) [1]: -0.0726 fraction
- Secreted and transmembrane protein 1 (SECTM1): Change from GRMD Baseline (fraction) [1]: -0.1238 fraction
- Serine/threonine-protein kinase PAK 3 (PAK3): Change from GRMD Baseline (fraction) [1]: 0.077 fraction
- Serine/threonine-protein kinase PAK 7 (PAK7): Change from GRMD Baseline (fraction) [1]: -0.0176 fraction
- Serine/threonine-protein kinase pim-1 (PIM1): Change from GRMD Baseline (fraction) [1]: 0.0551 fraction
- Serum amyloid A-1 protein (SAA1): Change from GRMD Baseline (fraction) [1]: -0.1642 fraction
- Sialic acid-binding Ig-like lectin 7 (SIGLEC7): Change from GRMD Baseline (fraction) [1]: -0.0123 fraction
- Small ubiquitin-related modifier 3 (SUMO3): Change from GRMD Baseline (fraction) [1]: -0.0342 fraction
- Stromelysin-1 (MMP3): Change from GRMD Baseline (fraction) [1]: 0.0381 fraction
- Stromelysin-2 (MMP10): Change from GRMD Baseline (fraction) [1]: -0.0469 fraction
- Synaptosomal-associated protein 25 (SNAP25): Change from GRMD Baseline (fraction) [1]: 0.0227 fraction
- T-cell surface glycoprotein CD4 (CD4): Change from GRMD Baseline (fraction) [1]: 0.004 fraction
- T-lymphocyte activation antigen CD86 (CD86): Change from GRMD Baseline (fraction) [1]: 0.0642 fraction
- TATA-box-binding protein (TBP): Change from GRMD Baseline (fraction) [1]: -0.0819 fraction
- Thyroxine-binding globulin (SERPINA7): Change from GRMD Baseline (fraction) [1]: -0.0761 fraction
- Transcription factor IIIB 90 kDa subunit (BRF1): Change from GRMD Baseline (fraction) [1]: 0.0702 fraction
- Tumor necrosis factor ligand superfamily member 18 (TNFSF18): Change from GRMD Baseline (fraction) [1]: 0.0235 fraction
- Tumor necrosis factor receptor superfamily member 13B (TNFRSF13B): Change from GRMD Baseline (fraction) [1]: -0.0295 fraction
- Tumor necrosis factor receptor superfamily member 13C (TNFRSF13C): Change from GRMD Baseline (fraction) [1]: -0.0266 fraction
- Tumor-associated calcium signal transducer 2 (TACSTD2): Change from GRMD Baseline (fraction) [1]: -0.0008 fraction
- Ubiquitin-conjugating enzyme E2 G2 (UBE2G2): Change from GRMD Baseline (fraction) [1]: -0.0144 fraction
- WNT1-inducible-signaling pathway protein 1 (WISP1): Change from GRMD Baseline (fraction) [1]: 0.0281 fraction
- WNT1-inducible-signaling pathway protein 3 (WISP3): Change from GRMD Baseline (fraction) [1]: 0.0371 fraction
- alpha-2-macroglobulin receptor-associated protein (LRPAP1): Change from GRMD Baseline (fraction) [1]: -0.0289 fraction
- cGMP-dependent 3',5'-cyclic phosphodiesterase (PDE2A): Change from GRMD Baseline (fraction) [1]: 0.1206 fraction
- Change from GRMD Baseline (fraction) (Protein deglycase DJ-1 (PARK7), EDG-5506 treatment to GRMD baseline): 0.1853 fraction
- Change from GRMD Baseline (fraction) (Protein deglycase DJ-1 (PARK7), Post-Treatment to GRMD baseline): -0.0618 fraction
- Change from GRMD Baseline (fraction) (Proto-oncogene vav (VAV1), EDG-5506 treatment to GRMD baseline): 0.0609 fraction
- Change from GRMD Baseline (fraction) (Proto-oncogene vav (VAV1), Post-Treatment to GRMD baseline): 0.2228 fraction
- Change from GRMD Baseline (fraction) (SH2 domain-containing protein 1A (SH2D1A), EDG-5506 treatment to GRMD baseline): 0.0272 fraction
- Change from GRMD Baseline (fraction) (SH2 domain-containing protein 1A (SH2D1A), Post-Treatment to GRMD baseline): 0.0814 fraction
- Change from GRMD Baseline (fraction) (Serine/threonine-protein kinase TBK1 (TBK1), EDG-5506 treatment to GRMD baseline): 0.0144 fraction
- Change from GRMD Baseline (fraction) (Serine/threonine-protein kinase TBK1 (TBK1), Post-Treatment to GRMD baseline): 0.0415 fraction
- Change from GRMD Baseline (fraction) (Sialic acid-binding Ig-like lectin 14 (SIGLEC14), EDG-5506 treatment to GRMD baseline): 0.0643 fraction
- Change from GRMD Baseline (fraction) (Sialic acid-binding Ig-like lectin 14 (SIGLEC14), Post-Treatment to GRMD baseline): -0.0249 fraction
- Change from GRMD Baseline (fraction) (Sorting nexin-4 (SNX4), EDG-5506 treatment to GRMD baseline): -0.0709 fraction
- Change from GRMD Baseline (fraction) (Sorting nexin-4 (SNX4), Post-Treatment to GRMD baseline): 0.088 fraction
- Change from GRMD Baseline (fraction) (Thrombin (F2), EDG-5506 treatment to GRMD baseline): 0.2436 fraction
- Change from GRMD Baseline (fraction) (Thrombin (F2), Post-Treatment to GRMD baseline): 0.0387 fraction
- Change from GRMD Baseline (fraction) (Transgelin-2 (TAGLN2), EDG-5506 treatment to GRMD baseline): 0.1205 fraction
- Change from GRMD Baseline (fraction) (Transgelin-2 (TAGLN2), Post-Treatment to GRMD baseline): -0.0633 fraction
- Change from GRMD Baseline (fraction) (WAP, kazal, immunoglobulin, kunitz and NTR domain-containing protein 1 (WFIKKN1), EDG-5506 treatment to GRMD baseline): 0.1609 fraction
- Change from GRMD Baseline (fraction) (WAP, kazal, immunoglobulin, kunitz and NTR domain-containing protein 1 (WFIKKN1), Post-Treatment to GRMD baseline): -0.0946 fraction
